Experimental data as given in the supplement of paper PMC10307832.

Legend:
Test in all cases: relative viability (nuclei count vs DMSO), 5 days (fraction); higher = more cells survive
[1] = compound: CC(C)(C)c1cc(NC(=O)Nc2ccc(-c3cn4c(n3)sc3cc(OCCN5CCOCC5)ccc34)cc2)no1 [Quizartinib] + N=C(N)NC(=N)NCCc1ccccc1 [Phenformin] (partner 250 µM)
Outline: (§1)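 Relative viability is defined as nuclei in treated wells over nuclei in vehicle wells. Duplicate plates were run and medians reported. Lung cancer cell lines in 1536-well plates were dosed by pin tool one day after seeding, with one drug or with a fixed anchor-drug dose plus five library-drug doses (not always all listed) in √10 steps, and nuclei were counted after 5 days.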

[2] = compound: COCC[n+]1c2c(n(Cc3cnccn3)c1C)C(=O)c1ccccc1C2=O [YM155] + CCNC(=O)c1noc(-c2cc(C(C)C)c(O)cc2O)c1-c1ccc(CN2CCOCC2)cc1 [Luminespib] (partner 0.01 µM)
Outline: as §1

[3] = compound: COCC[n+]1c2c(n(Cc3cnccn3)c1C)C(=O)c1ccccc1C2=O [YM155] + Cc1nc(NC(=O)N2CCC[C@H]2C(N)=O)sc1-c1ccnc(C(C)(C)C(F)(F)F)c1 [Alpelisib] (partner 2 µM)
Outline: as §1

[4] = compound: CC(C)(C)c1cc(NC(=O)Nc2ccc(-c3cn4c(n3)sc3cc(OCCN5CCOCC5)ccc34)cc2)no1 [Quizartinib] + CC1(C)CCC(c2ccc(Cl)cc2)=C(CN2CCN(c3ccc(C(=O)NS(=O)(=O)c4ccc(N[C@H](CCN5CCOCC5)CSc5ccccc5)c(S(=O)(=O)C(F)(F)F)c4)cc3)CC2)C1 [Navitoclax] (partner 0.5 µM)
Outline: as §1

Row | Cell Line | relative viability ([1]; first compound 0.001 µM) | relative viability ([1]; first compound 0.003162 µM) | relative viability ([1]; first compound 0.01 µM) | relative viability ([1]; first compound 0.03162 µM) | relative viability ([1]; first compound 0.1 µM) | relative viability ([2]; first compound 0.002 µM) | relative viability ([2]; first compound 0.006325 µM) | relative viability ([2]; first compound 0.02 µM) | relative viability ([2]; first compound 0.06325 µM) | relative viability ([3]; first compound 0.002 µM) | relative viability ([3]; first compound 0.006325 µM) | relative viability ([3]; first compound 0.02 µM) | relative viability ([3]; first compound 0.06325 µM) | relative viability ([4]; first compound 0.001 µM) | relative viability ([4]; first compound 0.003162 µM) | relative viability ([4]; first compound 0.01 µM) | relative viability ([4]; first compound 0.03162 µM) | relative viability ([4]; first compound 0.1 µM)
1 | NCI-H2228 | 0.242 | 0.228 | 0.52 | 0.345 | 0.26 | 0.16 | 0.148 | 0.104 | 0.144 | 0.764 | 0.782 | 0.645 | 0.657 | 0.859 | 0.702 | 0.75 | 1.08 | 0.98
2 | EPLC-272H | 0.215 | 0.342 | 0.427 | 0.3 | 0.207 | 0.378 | 0.327 | 0.186 | 0.24 | 0.917 | 0.937 | 0.915 | 1.02 | 1.06 | 0.964 | 1.15 | 1.18 | 1.05
3 | RERF-LC-KJ | 0.394 | 0.397 | 0.424 | 0.359 | 0.315 | 1.14 | 1 | 1.18 | 1.15 | 0.806 | 0.705 | 0.771 | 0.842 | 0.854 | 0.699 | 1.08 | 0.918 | 0.688
4 | NCI-H1793 | 0.361 | 0.338 | 0.385 | 0.317 | 0.37 | 0.234 | 0.24 | 0.333 | 0.189 |  | 0.601 | 0.659 | 0.565 | 0.414 | 0.304 | 0.496 | 0.423 | 0.331
5 | NCI-H727 |  | 0.514 | 0.584 | 0.52 | 0.469 | 0.588 | 0.336 | 0.307 | 0.665 | 0.499 | 0.495 | 0.586 | 0.575 | 0.408 |  | 0.611 | 0.476 | 0.357
6 | SK-LU-1 | 0.482 | 0.504 | 0.625 | 0.451 | 0.549 | 0.183 | 0.185 | 0.21 | 0.223 | 1.03 | 1.09 | 1.07 | 1.01 | 0.852 | 0.771 | 0.979 | 0.72 | 1.07
7 | PC-14 | 0.493 | 0.698 | 0.571 | 0.394 | 0.978 | 0.171 | 0.174 | 0.111 | 0.143 | 1 | 1.02 | 0.953 | 0.811 | 1 | 0.892 | 1.09 | 0.966 | 0.977
8 | NCI-H1437 | 0.274 | 0.277 | 0.294 | 0.208 | 0.172 | 1.1 | 1.1 | 0.976 | 0.76 | 0.958 | 1.03 | 0.993 | 0.835 | 0.954 | 0.994 | 1.04 | 0.904 | 0.8
